Data on four sequences can be found in patent US20020035061A1, “COMPOSITIONS AND METHODS FOR TREATING INFECTIONS USING CATIONIC PEPTIDES ALONE OR IN COMBINATION WITH ANTIBIOTICS” (priority 1996, published 2002).

Holding throughout (assay type): cell-based
The test system of one assay is P. vulgaris. The assay can be described thus: Agarose dilution assay (MIC).
Assay [1] relates to various bacterial strains. The assay can be described thus: Broth dilution assay (MIC). The procedure: Typically 100 μl of calcium and magnesium supplemented Mueller Hinton broth is dispensed into each well of a 96-well microtitre plate and 100 μl volumes of two-fold serial dilutions of the peptide are prepared across the plate. One row of wells receives no peptide and is used as a growth control. Each well is inoculated with approximately 5×10^5 CFU of bacteria and the plate is incubated at 35-37° C. for 16-20 hours.
For example, MIC values in μg/ml are established by broth dilution assay (Table 13) or by agarose dilution assay (Table 14) for a series of cationic peptides against various bacterial strains.
On the technique in general: In broth dilution the organism is exposed to a series of concentrations in liquid medium.

For assay [2], the system named is DoHH-2, B-cell cell lymphoma. The assay can be described thus: Cell death by Cytotox (Promega) lactate dehydrogenase release. The conditions noted are these: LDH release. The method in brief:
(§1)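 LDH release assay; APO-peptides + parent peptides; normal PBL/HUVEC and tumour cells tested.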
For orientation: Release of lactate dehydrogenase indicates damage to the cell membrane.

In assay [3] the test system is K562, chronic myelogenous leukemia. Described as above. The conditions noted are these: LDH release. The method in brief: as §1
For assay [4], the system named is E. coli strain ML-35 inner membrane.
The next assay relates to Candida. The assay can be described thus: Agarose dilution assay (MIC) against Candida.
A further assay deals with P. mirabilis. The experiment in a line: Agarose dilution assay (MIC). The conditions noted are these: P. mirabilis strain PM002.
Another assay relates to S. aureus. The assay can be described thus: microbe, parasite or virus in culture.
The subject of another assay is a bacterial strain. The assay can be described thus: Killing curves, combination of cationic peptide and antibiotic agent. Conditions: in combination with vancomycin, FIG. 3E. The procedure: As used herein, “synergy” refers to the in vitro effect of administration of a combination of a cationic peptide and antibiotic agent such that (I) the fractional inhibitory concentration (FIC) is less than or equal to 0.5 in an FIC assay described herein; or (2) there is at least a 100-fold (21og10) increase in killing at 24 hours for the combination as compared with the antibiotic agent alone in a time kill curve assay as described herein.
Time kill curves resulting from combination of cationic peptide and antibiotic agent are compared to that resulting from agent alone.
The assay is performed as described above except that duplicate tubes are set up for each concentration of the antibiotic agent alone and of the combination of antibiotic agent and cationic peptide.

Where “and” joins values, the source holds several entries; their conditions need not be identical. Equal values may be shown once.

As a reminder, the MIC is the least concentration at which growth counts as inhibited. For the sequence ILKKFPFFPFRRK [MBI 11A1CN], the MIC is above 128 µg/mL in the assay with P. vulgaris (P. vulgaris SBPV1); above 256 µg/mL in assay [1] (A. calcoaceticus 8191); above 256 µg/mL in assay [1] (E. cloacae 13047); 512 µg/mL in assay [1] (E. coli 25922); 128 µg/mL in assay [1] (E. coli DH1); above 256 µg/mL in [1] (E. coli ECO003). Also, the MIC is 256 µg/mL in [1] (E. coli KL4); above 256 µg/mL in [1] (E. faecalis 29212); above 256 µg/mL in [1] (K. pneumoniae 13883); above 256 µg/mL in assay [1] (K. pneumoniae B44); above 256 µg/mL in assay [1] (P. aeruginosa 27853); above 256 µg/mL in assay [1] (P. aeruginosa 8509041). Besides, the MIC in assay [1] (P. aeruginosa 9308077) was above 256 µg/mL; in assay [1] (P. aeruginosa 9503024), above 256 µg/mL; in assay [1] (P. aeruginosa H650) it was above 256 µg/mL; in [1] (P. aeruginosa H652) it was above 256 µg/mL; in [1] (S. aureus 25923), 512 µg/mL; in [1] (S. aureus 27217), above 256 µg/mL. Moreover, the MIC is 512 µg/mL in [1] (S. aureus 29213); above 256 µg/mL in [1] (S. aureus 33593); above 256 µg/mL in [1] (S. aureus 8402093); above 256 µg/mL in [1] (S. aureus 8809014); above 256 µg/mL in assay [1] (S. aureus 8809025); 512 µg/mL in [1] (S. epidermidis 14990). Further, the MIC in [1] (S. maltophilia 13637) is 256 µg/mL; in assay [1] (S. maltophilia H361), 256 µg/mL; in assay [1] (S. marcescens 13880), above 256 µg/mL; in assay [1] (S. marcescens B21), above 256 µg/mL. The “Peptide MIC values” in the assay on P. vulgaris (agarose dilution, P. vulgaris ATCC 13315) was above 128 µg/mL.

For the sequence ILRWPWWPWRRK [MBI 11B7CN], the “LC50 ± S.E., DoHH-2” value in assay [2] was found to be 16.5 ± 3 µg/mL. In addition, in assay [3], the “LC50 ± S.E., K562” value was 34 ± 25 µg/mL. The “time of maximum activity in growth cycle” value in [4] was 140 min and 230 min. In addition, the MIC in the assay on Candida (C. albicans CA001) stood at 64 µg/mL; against Candida (C. albicans CA002), 32 µg/mL; in the assay with Candida (C. albicans CA003), 64 µg/mL; against Candida (C. albicans CA004) it was 32 µg/mL; in the assay on Candida (C. albicans CA005) it was 32 µg/mL; against Candida (C. albicans CA006), 64 µg/mL. Also, the MIC is 64 µg/mL in the assay with Candida (C. albicans CA007); 32 µg/mL against Candida (C. albicans CA008); 32 µg/mL against Candida (C. albicans CA009); 64 µg/mL against Candida (C. albicans CA010); 64 µg/mL in the assay with Candida (C. albicans CA011); 64 µg/mL with Candida (C. albicans CA012). Besides, the MIC in the assay on Candida (C. albicans CA013) worked out at 64 µg/mL; with Candida (C. albicans CA014), 32 µg/mL; with Candida (C. albicans CA015), 64 µg/mL; in the assay with Candida (C. albicans CA016), 64 µg/mL; against Candida (C. albicans CA017), 64 µg/mL; in the assay with Candida (C. albicans CA018), 64 µg/mL. Besides, the MIC against Candida (C. albicans CA019) stood at 64 µg/mL; with Candida (C. albicans CA020) it was 32 µg/mL; in the assay on Candida (C. albicans CA021), 32 µg/mL; in the assay with Candida (C. albicans CA022) it was 32 µg/mL; with Candida (C. albicans CA023) it was 64 µg/mL; in the assay on Candida (C. albicans CA024), 8 µg/mL. Besides, the MIC in the assay with Candida (C. glabrata CGL001), against Candida (C. glabrata CGL002), in the assay on Candida (C. glabrata CGL003), with Candida (C. glabrata CGL004), in the assay on Candida (C. glabrata CGL005) and with Candida (C. glabrata CGL009) was 128 µg/mL in each case. In addition, the MIC against Candida (C. glabrata CGL010) turned out to be 128 µg/mL; in the assay on Candida (C. krusei CKR001), 1 µg/mL; against Candida (C. tropicalis CTR001), 4 µg/mL; in the assay with Candida (C. tropicalis CTR002) it was 8 µg/mL; against Candida (C. tropicalis CTR003), 8 µg/mL; in the assay with Candida (C. tropicalis CTR004) it was 8 µg/mL. The MIC is 4 µg/mL in the assay on Candida (C. tropicalis CTR005); 8 µg/mL in the assay with Candida (C. tropicalis CTR006); 8 µg/mL in the assay on Candida (C. tropicalis CTR007); 4 µg/mL in the assay with Candida (C. tropicalis CTR008); 4 µg/mL in the assay with Candida (C. tropicalis CTR009); above 128 µg/mL in the assay with P. mirabilis.

KKWWRRALQGLKTAGPAIQSVLNK [MBI 21A2]: in the assay on S. aureus (S. aureus SA25), the “Ciprofloxacin MIC + Peptide” value was 1 µg/mL and the “Peptide MIC + Ciprofloxacin” value amounted to 1 µg/mL. Besides, the “Peptide MIC Alone” value in the assay with S. aureus (S. aureus SA25, Ciprofloxacin section) is 16 µg/mL. In addition, in the assay on S. aureus (antibiotic agents combined with peptide), the “acquired resistance of S. aureus to piperacillin and ciprofloxacin” value is “overcome”. Moreover, the FIC in the assay with S. aureus (peptide + Ciprofloxacin, S. aureus SA25) was found to be 0.56.

Turning to KWKSFIKKLTSAAKKVVTTAKPLISS [MBI 26], the “killing by combination compared with peptide or antibiotic agent alone” value in the assay with a bacterial strain is reported as “greater killing than either peptide or antibiotic agent alone”.
